Data published in BindingDB's records for doi:10.1016/0960-894X(95)00537-3 (1995).

Molecular target: Gastrin/cholecystokinin type B receptor (Cavia porcellus)
Test: Inhibitory activity towards binding of [125I]Bolton-Hunter-CCK-8 to CCKB receptor in guinea pig cortical tissue

Row | Structure (SMILES) | IC50 [nM]
1 | Cc1cccc(NC(=O)N[C@H](CCC(=O)OCc2ccccc2)C(=O)N2CCN(C(=O)c3ccccc3)CC2)c1 | > 10000
2 | Cc1cccc(NC(=O)N[C@H](CCc2ccccc2)C(=O)N2CCC(C(=O)c3ccccc3)CC2)c1 [1-[(R)-1-(4-Benzoyl-piperidine-1-carbonyl)-3-phenyl-propyl]-3-m-tolyl-urea] | 3900
3 | CCCC[C@@H](NC(=O)Nc1cccc(C)c1)C(=O)N1CCC(C(=O)c2ccccc2)CC1 [1-[(R)-1-(4-Benzoyl-piperidine-1-carbonyl)-pentyl]-3-m-tolyl-urea] | 4800
4 | Cc1cccc(NC(=O)N[C@H](COCc2ccccc2)C(=O)N2CCC(Cc3ccccc3)CC2)c1 [1-[(R)-1-Benzyloxymethyl-2-(4-benzyl-piperidin-1-yl)-2-oxo-ethyl]-3-m-tolyl-urea] | > 5900
5 | CC(=O)C1CCN(C(=O)[C@@H](COCc2ccccc2)NC(=O)Nc2cccc(C)c2)CC1 [1-[(R)-2-(4-Acetyl-piperidin-1-yl)-1-benzyloxymethyl-2-oxo-ethyl]-3-m-tolyl-urea] | > 6900
6 | Cc1cccc(NC(=O)N[C@H](COCc2ccccc2)C(=O)N2CCC(C(=O)c3ccccc3)CC2)c1 [1-[(R)-2-(4-Benzoyl-piperidin-1-yl)-1-benzyloxymethyl-2-oxo-ethyl]-3-m-tolyl-urea] | 300
7 | Cc1cccc(NC(=O)N[C@H](COCc2ccccc2)C(=O)N2CCC(C(=O)Nc3ccccc3)CC2)c1 [1-[(R)-3-Benzyloxy-2-(3-m-tolyl-ureido)-propionyl]-piperidine-4-carboxylic acid phenylamide] | 160
8 | Cc1cccc(NC(=O)N[C@H](CS(=O)(=O)Cc2ccccc2)C(=O)N2CCC(C(=O)c3ccccc3)CC2)c1 [1-[(S)-2-(4-Benzoyl-piperidin-1-yl)-2-oxo-1-phenylmethanesulfonylmethyl-ethyl]-3-m-tolyl-urea] | 810
9 | Cc1cccc(NC(=O)N[C@H](COCc2ccccc2)C(=O)N2CCC(C(=O)c3ccc(F)cc3)CC2)c1 [1-{1-((R)-Benzyloxymethyl)-2-[4-(4-fluoro-benzoyl)-piperidin-1-yl]-2-oxo-ethyl}-3-m-tolyl-urea] | 230
10 | Cc1cccc(NC(=O)N[C@H](CCCc2ccccc2)C(=O)N2CCC(C(=O)c3ccccc3)CC2)c1 [1-{1-[(R)-(4-Benzoyl-piperidin-1-yl)-oxo-methyl]-4-phenyl-butyl}-3-m-tolyl-urea] | 1100
11 | Cc1cccc(NC(=O)N[C@@H](C(=O)N2CCC(C(=O)c3ccccc3)CC2)[C@@H](C)OCc2ccccc2)c1 [1-{(R)-1-[(R)-(4-Benzoyl-piperidin-1-yl)-oxo-methyl]-2-benzyloxy-propyl}-3-m-tolyl-urea] | 440
12 | Cc1cccc(NC(=O)N[C@H](CCC(=O)OCc2ccccc2)C(=O)N2CCC(NC(=O)c3ccccc3)CC2)c1 [5-(4-Benzoylamino-piperidin-1-yl)-5-(R)-oxo-4-(3-m-tolyl-ureido)-pentanoic acid benzyl ester] | > 10000
13 | Cc1cccc(NC(=O)N[C@H](CCC(=O)OCc2ccccc2)C(=O)N2CCC(C(=O)Nc3ccccc3)CC2)c1 [5-(R)-Oxo-5-(4-phenylcarbamoyl-piperidin-1-yl)-4-(3-m-tolyl-ureido)-pentanoic acid benzyl ester] | 2000
14 | Cc1cccc(NC(=O)N[C@H](COC(=O)N(C)C)C(=O)N2CCC(C(=O)c3ccccc3)CC2)c1 [Dimethyl-carbamic acid (R)-3-(4-benzoyl-piperidin-1-yl)-3-oxo-2-(3-m-tolyl-ureido)-propyl ester] | 1500
15 | Cc1cccc(NC(=O)N[C@H](COC(=O)N2CCOCC2)C(=O)N2CCC(C(=O)c3ccccc3)CC2)c1 [Morpholine-4-carboxylic acid (R)-3-(4-benzoyl-piperidin-1-yl)-3-oxo-2-(3-m-tolyl-ureido)-propyl ester] | 180
16 | Cc1cccc(NC(=O)N[C@H](COC(=O)Nc2ccccc2)C(=O)N2CCC(C(=O)c3ccccc3)CC2)c1 [Phenyl-carbamic acid (R)-3-(4-benzoyl-piperidin-1-yl)-3-oxo-2-(3-m-tolyl-ureido)-propyl ester] | 120
17 | Cc1cccc(NC(=O)N[C@H](COC(=O)N2CCCC2)C(=O)N2CCC(C(=O)c3ccccc3)CC2)c1 [Pyrrolidine-1-carboxylic acid (R)-3-(4-benzoyl-piperidin-1-yl)-3-oxo-2-(3-m-tolyl-ureido)-propyl ester] | 100
18 | Cc1cccc(NC(=O)N[C@H](COC(=O)N2CCCC2)C(=O)N2CCC(C(=O)Nc3ccccc3)CC2)c1 [Pyrrolidine-1-carboxylic acid (R)-3-oxo-3-(4-phenylcarbamoyl-piperidin-1-yl)-2-(3-m-tolyl-ureido)-propyl ester] | 34
19 | CC(Cc1c[nH]c2ccccc12)(NC(=O)OC1[C@H]2C[C@@H]3C[C@@H](C[C@H]1C3)C2)C(=O)N1CCC(C(=O)c2ccccc2)CC1 (some centres not stated) [[2-(4-Benzoyl-piperidin-1-yl)-1-(1H-indol-3-ylmethyl)-1-methyl-2-oxo-ethyl]-carbamic acid adamantan-2-yl ester] | 3400
20 | CC(C)C[C@H](NC(=O)[C@H](Cc1c[nH]c2ccccc12)NC(=O)OC(C)(C)C)C(=O)N1CCC(C(=O)c2ccccc2)CC1 [[(S)-1-[(S)-1-(4-Benzoyl-piperidine-1-carbonyl)-3-methyl-butylcarbamoyl]-2-(1H-indol-3-yl)-ethyl]-carbamic acid tert-butyl ester] | 912
21 | CC(C)C[C@H](NC(=O)[C@H](Cc1c[nH]c2ccccc12)NC(=O)OC(C)(C)C)C(=O)N1CCC(Cc2ccccc2)CC1 [[(S)-1-[(S)-1-(4-Benzyl-piperidine-1-carbonyl)-3-methyl-butylcarbamoyl]-2-(1H-indol-3-yl)-ethyl]-carbamic acid tert-butyl ester] | > 10000
22 | CC(C)(C)OC(=O)N[C@@H](Cc1c[nH]c2ccccc12)C(=O)N1CCC(C(=O)c2ccccc2)CC1 [[(S)-2-(4-Benzoyl-piperidin-1-yl)-1-(1H-indol-3-ylmethyl)-2-oxo-ethyl]-carbamic acid tert-butyl ester] | > 10000
